Test results published in the supplement of paper PMC10307832.

How the values were obtained:
Experiment in all cases: relative viability (nuclei count vs DMSO), 5 days (fraction); higher = more cells survive
[1] = compound: CC1=C(CC(=O)O)c2cc(F)ccc2/C1=C\c1ccc([S+](C)[O-])cc1 [Sulindac] + Cc1nc(NC(=O)N2CCC[C@H]2C(N)=O)sc1-c1ccnc(C(C)(C)C(F)(F)F)c1 [Alpelisib] (partner 2 µM)
Summary of the method: (§1)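 Lung cancer cell lines in 1536-well plates were dosed by pin tool the day after seeding, either with one drug alone or with a fixed anchor-drug dose plus five library-drug doses (not always all listed) in √10 steps. After 5 days, cells were fixed and their nuclei stained in one step (final 0.05% Triton X-100, 1% formaldehyde, 1 ug/ml Hoechst), then counted on 4× images. Relative viability is the nuclei count in treated wells divided by that in vehicle wells. Values are medians of duplicate plates.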

[2] = compound: CN[C@@H]1C[C@H]2O[C@@](C)([C@@H]1OC)n1c3ccccc3c3c4c(c5c6ccccc6n2c5c31)C(=O)NC4 [Staurosporine] + CC(=O)Nc1cccc(-n2c(=O)n(C3CC3)c(=O)c3c(Nc4ccc(I)cc4F)n(C)c(=O)c(C)c32)c1 [Trametinib] (partner 0.02 µM)
Summary of the method: as §1

[3] = compound: CN[C@@H]1C[C@H]2O[C@@](C)([C@@H]1OC)n1c3ccccc3c3c4c(c5c6ccccc6n2c5c31)C(=O)NC4 [Staurosporine] + O=C(CCCCCCC(=O)Nc1ccccc1)NO [Vorinostat] (partner 1 µM)
Summary of the method: as §1

[4] = compound: O=c1[nH]cc(F)c(=O)[nH]1 [5-Fluorouracil] + Cc1nc(Nc2ncc(C(=O)Nc3c(C)cccc3Cl)s2)cc(N2CCN(CCO)CC2)n1 [Dasatinib] (partner 0.075 µM)
Summary of the method: as §1

Cell Line	relative viability ([1]; first compound 0.08 µM)	relative viability ([1]; first compound 0.253 µM)	relative viability ([1]; first compound 0.8 µM)	relative viability ([1]; first compound 2.53 µM)	relative viability ([1]; first compound 8 µM)	relative viability ([2]; first compound 0.005 µM)	relative viability ([2]; first compound 0.01581 µM)	relative viability ([2]; first compound 0.05 µM)	relative viability ([2]; first compound 0.1581 µM)	relative viability ([2]; first compound 0.5 µM)	relative viability ([3]; first compound 0.005 µM)	relative viability ([3]; first compound 0.01581 µM)	relative viability ([3]; first compound 0.1581 µM)	relative viability ([3]; first compound 0.5 µM)	relative viability ([4]; first compound 0.02 µM)	relative viability ([4]; first compound 0.2 µM)	relative viability ([4]; first compound 0.6325 µM)	relative viability ([4]; first compound 2 µM)	relative viability ([3]; first compound 0.05 µM)
NCI-H1734	0.712	0.696	0.64	0.693	0.805	0.715	0.387	0.165	0.119	0.101	0.751	0.236	0.117	0.107	0.41	0.521	0.407	0.291	–
PC-14	0.986	1.16	–	1.13	1	0.483	0.064	0.0553	0.0467	0.0475	0.267	0.116	0.047	0.0287	0.247	0.268	0.274	0.188	0.0757
NCI-H1915	1.05	1.11	0.999	1.04	1.12	0.252	0.139	0.0978	0.0599	0.0612	0.452	0.178	0.0885	0.0702	0.305	0.31	0.303	0.266	0.148
COR-L23	0.871	0.867	–	0.714	1.13	0.325	0.148	0.0689	0.0665	0.0391	0.159	0.147	0.0709	0.0639	0.529	0.467	0.254	0.186	0.0727
HOP-62	1.15	0.994	0.842	0.963	1.21	0.359	0.196	0.184	0.141	0.102	0.168	0.0742	0.0731	0.0573	0.681	0.69	0.59	0.558	0.1
NCI-H1975	0.73	0.757	–	0.674	0.694	0.18	0.141	0.139	0.121	0.1	0.297	0.232	0.146	0.105	0.363	0.387	0.307	0.231	0.218
BEN	1.09	1.22	0.831	1	1.15	1.21	1.2	0.827	0.729	0.439	0.879	0.885	0.319	0.264	0.318	0.318	0.284	0.277	0.506
NCI-H1437	1.25	0.905	0.733	0.946	1.17	0.342	0.244	0.26	0.21	0.124	0.577	0.469	0.235	0.169	0.369	0.183	0.189	0.137	0.302
EMC-BAC-2	0.854	0.791	0.637	0.767	0.87	0.42	0.225	0.219	0.253	–	0.103	–	0.166	0.266	0.343	0.332	0.368	0.35	0.14
SW 1573	–	0.706	–	0.793	0.934	0.137	0.0903	0.055	0.047	0.033	0.811	0.391	0.0813	0.0557	0.58	0.402	0.472	0.259	0.152
NCI-H661	0.639	0.551	0.535	0.621	0.725	0.522	0.336	0.29	0.248	0.137	0.854	0.695	0.239	0.179	0.962	1.01	0.81	0.851	0.523
LXF-289	1.1	1.05	1.02	1.13	1.06	0.741	0.409	0.412	0.274	0.237	0.73	0.249	0.0781	0.0815	0.192	0.202	0.152	0.154	0.29
LOU-NH91	0.711	0.7	0.636	0.745	0.808	0.673	0.493	0.511	0.341	0.303	0.859	0.405	0.267	0.294	0.566	0.598	0.501	0.304	0.61
NCI-H2347	1.22	1.05	0.938	1.04	1.17	0.259	0.248	0.174	0.221	0.186	0.409	0.378	0.264	0.228	0.334	0.328	0.295	0.224	0.274
NCI-H2009	1.23	1.18	1.1	1.18	1.27	0.204	0.143	0.149	0.087	0.0761	0.576	0.185	0.109	0.0558	0.226	0.322	0.248	0.271	0.166
HCC-827	0.985	0.979	0.839	0.943	1.11	0.625	0.641	0.357	0.313	0.231	0.866	0.772	0.174	0.183	0.254	0.335	0.305	0.337	0.384
NCI-H727	0.687	0.537	0.591	0.579	0.771	0.349	0.346	0.316	0.267	0.257	1.36	0.831	0.36	0.322	0.38	0.395	0.378	0.375	0.453
